Patent US12090204B2, “Photodynamic therapy compositions and methods of use thereof” (Pinnacle Biologics, Inc., priority 2020, dated 2024)

What was measured:
P. acnes (+) [1] = test: porfimer sodium aPDT, 48 hour biofilm culture; format: cell-based, Proprionibacterium acnes (Cutibacterium acnes); details: 630 nm, kill at 100 J/cm2 (light dose 75-100 J/cm2), porfimer sodium 250 μg/mL
Description: (§1) Bacteria were routinely cultured using tryptic soy broth or agar at 37° C. in a 5% CO2 incubator. Bacteria were isolated and suspended with 0.9% NaCl to an Optical Density (OD) of 0.1 taken at 630 nm, to generate the inoculum used for either planktonic or biofilm assays.
(§2) The colony forming units (CFU) per mL of the starting inoculum for every experiment was determined by dilution plating. Control samples were exposed to laser at 630 nm in the absence of porfimer sodium, porfimer sodium in the absence of laser exposure, or in saline alone in the absence of porfimer sodium and 630 nm laser light. All experimental samples were dilution plated to enumerate viable CFU's. Three independent replicates were performed for each reaction condition per strain per assay. […]
(§3) Bacteria were exposed to 630 nm laser light via a fiber optic with a lens affixed to the distal end to provide a uniform diverging light field. […] Power output of the laser was measured using a UDT/Gamma Scientific 371 optical power meter and an integrating sphere. […]
(§4) Biofilms were formed on glass coupons in culture dishes containing a bacterial inoculum for 48 hours under conditions specific to the strain. […] Power output of the laser was measured using a UDT/Gamma Scientific 371 optical power meter and an integrating sphere. […]

N. gonorrhoea (−) = test: porfimer sodium aPDT, planktonic culture; format: cell-based, Neisseria gonorrhea; details: 630 nm, 200 J/cm2, porfimer sodium 125 μg/mL
Description: as §1
(§5) Experiments using planktonic cultures were carried out using M. catarrhalis, as a standard for further comparisons and to determine the effective drug concentration, porfimer sodium incubation time and light dose parameters which would provide an effective cell kill at the level of 5-7 logs. Once determined the experiments were repeated for all other bacterial strains examined.
(§6) The colony forming units (CFU) per mL of the starting inoculum for every experiment was determined by dilution plating. […]
as §3, §4

[2] = tested on: Moraxella catarrhalis, Methicillin resistant Staphylococcus aureus (MRSA), Porphymonas gingivalis, Cutibacterium acnes, Peptostreptococcus anaerobius …; test: aPDT on 48 hour biofilms of various strains, CFU (FIG. 2); format: cell-based
Description: Biofilms were formed on glass coupons in culture dishes containing a bacterial inoculum for 48 hours under conditions specific to the strain. The glass coupon attached biofilms were then rinsed with saline, by dipping method, prior to the administration of the porfimer sodium. The biofilms were incubated in the dark for 15-30 minutes with a reconstituted saline solution of porfimer sodium at final concentrations ranging from 75 μg/ml-250 μg/ml. The porfimer sodium treated biofilms were then exposed to light doses at 630 nm light of 50-200 J/cm^2 at a power density of 150 milliwatts per cm^2. The light was delivered using a fiberoptic with a lens attached at the distal end to provide a uniform light field over the area of the samples being treated. The accuracy of the wavelength delivered was routinely checked using an Optometrics USA Inc. 1 nm/div monochromator. Power output of the laser was measured using a UDT/Gamma Scientific 371 optical power meter and an integrating sphere. Control samples were 1) bacterial suspensions without any light or porfimer sodium (NLNP); and 2) porfimer sodium alone in bacterial suspension without any light (NLP) and 3) light alone (L). The light alone control was exposed to the highest light dose used in that particular experiment. Light doses are in joules/cm^2. Power density was 150 mW/cm^2 for each in vitro trial. […]

S. Mutans (+) = test: porfimer sodium aPDT, planktonic culture; format: cell-based, Streptococcus Mutans; details: 630 nm, 200 J/cm2, porfimer sodium 125 μg/mL
Description: as §1, §5, §6, §3, §4

S. aureus (+) = test: porfimer sodium aPDT, 48 hour biofilm culture; format: cell-based, Staphylococcus aureus; details: 630 nm, kill at 75 J/cm2 (light dose 75-100 J/cm2), porfimer sodium 250 μg/mL
Description: as §1, §2, §3, §4

Prevotella (−) = test: porfimer sodium aPDT, planktonic culture; format: cell-based; details: 630 nm, kill at 75 J/cm2 (light dose 50-100 J/cm2), porfimer sodium 150 μg/mL
Description: as §1, §5, §6, §3, §4

P. acnes (+) [3] = test: porfimer sodium aPDT, planktonic culture; format: cell-based, Proprionibacterium acnes (Cutibacterium acnes); details: 630 nm, kill at 75 J/cm2 (light dose 50-100 J/cm2), porfimer sodium 150 μg/mL
Description: as §1, §5, §6, §3, §4

A. baumannii (−) = test: porfimer sodium aPDT, planktonic culture; format: cell-based, Acinetobacter baumannii; details: 630 nm, 200 J/cm2, porfimer sodium 125 μg/mL
Description: as §1, §5, §6, §3, §4

[4] = format: in vivo, Yorkshire pigs; details: abraded wounds, Example 3
From the text: This study evaluated the antimicrobial activity and local safety of porfimer sodium when applied to abraded wounds in Yorkshire pigs.
On Day −2 of the study, pigs were anesthetized and the skin aseptically prepared. Superficial wounds were created using the tape strip method until punctate bleeding was observed. Also on Day −2, eight wounds per pig were inoculated with one of three bacterial cultures (Haemophilus influenza, Moraxella catarrhalis, or Staphylococcus aureus) at a concentration of 10^7-10^8 CFUs per mL. There were two control sites on each side. […] The wounds were covered, analgesia in the form of buprenorphine (IM, 0.03 mg/kg) was provided, and the animals were recovered from anesthesia.

MRSA (+) = test: porfimer sodium aPDT, 48 hour biofilm culture; format: cell-based, methicillin-resistant Staphylococcus aureus; details: 630 nm, kill at 100 J/cm2 (light dose 75-100 J/cm2), porfimer sodium 250 μg/mL
Description: as §1, §2, §3, §4

M. catarrhalis (−) = test: porfimer sodium aPDT, 48 hour biofilm culture; format: cell-based, Moraxella catarrhalis; details: 630 nm, kill at 75 J/cm2 (light dose 75-100 J/cm2), porfimer sodium 250 μg/mL
Description: as §1, §2, §3, §4

P. gingivalis (−) [5] = test: porfimer sodium aPDT, 48 hour biofilm culture; format: cell-based, Porphyromonas gingivalis; details: 630 nm, kill at 100 J/cm2 (light dose 75-100 J/cm2), porfimer sodium 250 μg/mL
Description: as §1, §2, §3, §4

B. atrophaeus (+) = test: porfimer sodium aPDT, planktonic culture; format: cell-based, Bacillus atrophaeus; details: 630 nm, 200 J/cm2, porfimer sodium 125 μg/mL
Description: as §1, §5, §6, §3, §4

P. gingivalis (−) [6] = test: porfimer sodium aPDT, planktonic culture; format: cell-based, Porphyromonas gingivalis; details: 630 nm, kill at 75 J/cm2 (light dose 50-100 J/cm2), porfimer sodium 150 μg/mL
Description: as §1, §5, §6, §3, §4

porfimer sodium
Rate of kill (P. acnes (+) [1]): 7Log
Rate of kill (N. gonorrhoea (−)): 4Log
decrease of viability of the bacteria in biofilm ([2]; depending on the dose): 2-7 logs
log reduction at the highest light doses (complete reduction, all strains examined) ([2]; highest light doses used): ~7 log reduction
Rate of kill (S. Mutans (+)): >7Log
Rate of kill (S. aureus (+)): >6Log
Rate of kill (Prevotella (−)): 7Log
Rate of kill (P. acnes (+) [3]): 7Log
Rate of kill (A. baumannii (−)): 1Log
histopathological observations, treated sites vs control sites [4]: no significant difference between treated sites and control sites
Rate of kill (MRSA (+)): 7Log
Rate of kill (M. catarrhalis (−)): >6Log
Rate of kill (P. gingivalis (−) [5]): 7Log
Rate of kill (B. atrophaeus (+)): 6Log
Rate of kill (P. gingivalis (−) [6]): 7Log
